Test results as given in PMC11651172, “Suite of Biochemical and Cell-Based Assays for the Characterization of Kirsten Rat Sarcoma (KRAS) Inhibitors and Degraders” (ACS Pharmacology & Translational Science, 2024).
Entries after “also recorded” stand apart in the source; their conditions may differ. Where two headings read alike, the source gives them in different places.

How the values were obtained:
[1] = target: T1, KRAS(G12D) (Homo sapiens, UniProt P01116, G12D); experiment: targeted protein degradation assay (EFC); assay type: cell-based; settings: A549 ED-KRAS(G12D) cells, 18 h, top dose 10 μM
T1 construct: knocking in an ED fragment (and the relevant mutation in KRAS) into the KRAS locus by CRISPR technology; ED tag (ePL, enhanced ProLink); host or cells: A549 (SPRINTer A549 KRAS G12D, CRISPR knock-in)
T1 sequence (P01116 1-188 isoform P01116-2 G12D): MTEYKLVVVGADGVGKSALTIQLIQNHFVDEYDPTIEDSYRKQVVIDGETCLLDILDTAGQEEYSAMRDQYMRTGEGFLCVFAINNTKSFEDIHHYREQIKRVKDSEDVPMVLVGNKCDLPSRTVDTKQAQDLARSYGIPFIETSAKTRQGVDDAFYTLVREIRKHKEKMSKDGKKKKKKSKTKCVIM
Experimental: (§1) We tested the KRAS(G12C)-specific protein degrader LC2 (Figure 1C) with our three KRAS cell lines in the developed protein degradation assay. The assay was set up in homogeneous 384-well format with an 11-point dose response curve, with a top dose of 10 μM and each dose tested in quadruplicate. Cells were incubated with LC2 for 18 h and at the end of incubation, detection reagents containing the complementing EA fragment were added to each well for chemiluminescence quantitation. Shown in Figure 6A, LC2 induced a loss of signal (an indication of protein degradation) in KRAS(G12C) cells with a DC50 of 1.9 μM and a Dmax of 69%, close to the previously described value.[25]
(§2) The gRNAs (crRNA), HiFi Cas9 Nuclease V3, and ATTO 550 tracrRNA used in this study to generate ED-tagged KRAS cell lines were purchased from Integrated DNA Technologies (Coralville, IA). Double-stranded DNAs containing ED or ePL (enhanced ProLink) were purchased from Eurofins Genomics Blue Heron (Bothell, WA). […] The gRNA was first annealed with fluorescence-labeled (ATTO-550) tracrRNA in a 1:1 ratio to form an RNA duplex, followed by incubation with Cas9 nuclease to generate Cas9-gRNA ribonucleoprotein (RNP). […] At 16 h postelectroporation, cells with high fluorescence at 550 nm were sorted to enrich the genome-edited cell populations. […]

[2] = target: T2, KRAS(WT) (Homo sapiens, UniProt P01116); experiment: targeted protein degradation assay (EFC); assay type: cell-based; settings: A549 ED-KRAS(WT) cells, 18 h, top dose 10 μM
T2 construct: knocking in an ED fragment (and the relevant mutation in KRAS) into the KRAS locus by CRISPR technology; ED tag (ePL, enhanced ProLink); host or cells: A549 (SPRINTer A549 KRAS WT, homozygous CRISPR knock-in)
T2 sequence (P01116 1-188 isoform P01116-2): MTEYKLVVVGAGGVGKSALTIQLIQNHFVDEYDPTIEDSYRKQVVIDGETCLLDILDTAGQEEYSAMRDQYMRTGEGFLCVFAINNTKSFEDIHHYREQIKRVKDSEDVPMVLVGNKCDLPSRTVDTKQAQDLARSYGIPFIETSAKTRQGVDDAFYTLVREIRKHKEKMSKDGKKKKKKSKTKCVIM
Experimental: as §1, §2

[3] = target: T3, KRAS(G12C) (Homo sapiens, UniProt P01116, G12C); set-up: made in house; host or cells: HEK293 (transient transfection, unpurified extract); method as in PMID 32875077, PMID 34715575; settings: Western blot, among three different cell lines; cited from earlier work
Target sequence in this assay (P01116 1-164 G12C): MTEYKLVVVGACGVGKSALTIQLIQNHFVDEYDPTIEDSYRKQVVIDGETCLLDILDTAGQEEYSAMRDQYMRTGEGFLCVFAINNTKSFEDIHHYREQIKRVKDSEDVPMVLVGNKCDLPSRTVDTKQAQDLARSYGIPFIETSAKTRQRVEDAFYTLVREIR

[4] = target: T3, KRAS(G12C); experiment: targeted protein degradation assay (EFC); assay type: cell-based; set-up: knocking in an ED fragment (and the relevant mutation in KRAS) into the KRAS locus by CRISPR technology; ED tag (ePL, enhanced ProLink); host or cells: A549 (SPRINTer A549 KRAS G12C, homozygous CRISPR knock-in)
Experimental: as §1, §2
Target sequence in this assay (P01116 1-188 isoform P01116-2 G12C): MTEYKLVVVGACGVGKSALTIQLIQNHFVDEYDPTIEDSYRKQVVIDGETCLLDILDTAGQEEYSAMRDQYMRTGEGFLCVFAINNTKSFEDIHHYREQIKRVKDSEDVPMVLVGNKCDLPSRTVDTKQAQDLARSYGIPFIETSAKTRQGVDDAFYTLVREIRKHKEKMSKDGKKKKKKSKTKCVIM

[5] = target: T1, KRAS(G12D); experiment: pulse target engagement assay; assay type: cell-based; settings: KRAS(G12D) cells, 1 or 5 h incubation, 3 min at 67 °C
Experimental: (§3) Next, we explored the application of KRAS cell lines for a pulse target engagement (TE) assay to profile compounds or identify new ligands. The TE assay is based on the observation that the direct interaction between a compound and its cellular protein target increases the stability of the protein and reduces its turnover.[48],[49],[51] […] Therefore, in our pulse TE assay, cells are incubated with a compound and then subjected to an elevated temperature to induce protein denaturation. Compound binding protects the target protein from denaturation, and consequently preserves enzyme complementation activities with the cellular ED-tagged fusion protein, producing a robust chemiluminescent signal. In the absence of compound binding, the target protein forms denatured aggregates that leads to a loss of complementation ability and decreased chemiluminescent signal (Figure 7).
(§4) We next performed pulse TE assays with a panel of KRAS inhibitors on three KRAS cell lines. […] Cells were incubated with the compounds for 1 or 5 h, followed by a 3 min incubation at 67 °C.
(§5) The pulse target engagement assay was set up in a 96-well format with an 11-point dose response curve (triplicates/dose) and vehicle control. Cells were collected and diluted in complete medium that allowed for a cell seeding of 5000 cells in 40 μL per well in 96-well PCR plates (black, Thermo Fisher Scientific, Waltham, MA). […]

[6] = target: T2, KRAS(WT); experiment: pulse target engagement assay; assay type: cell-based; settings: KRAS(WT) cells, 1 or 5 h incubation, 3 min at 67 °C
Experimental: as §3, §4, §5

[7] = target: T3, KRAS(G12C); experiment: pulse target engagement assay; assay type: cell-based; set-up: knocking in an ED fragment (and the relevant mutation in KRAS) into the KRAS locus by CRISPR technology; ED tag (ePL, enhanced ProLink); host or cells: A549 (SPRINTer A549 KRAS G12C, homozygous CRISPR knock-in); settings: KRAS(G12C) cells, 1 or 5 h incubation, 3 min at 67 °C
Experimental: as §3, §4, §5
Target sequence in this assay (P01116 1-188 isoform P01116-2 G12C): as above

Row | SMILES | protein degradation [1] | protein degradation [2] | DC50 [3] | Dmax [3] | Dmax ([4]; A549) | DC50 ([4]; A549 ED-KRAS(G12C) cells, 18 h incubation) | target engagement (affinity in words) [5] | target engagement (affinity in words) [6] | target engagement (affinity in words) [7]
1 | C=C(F)C(=O)N1CCN(c2nc(OC[C@@H]3CCCN3CCCOCCC(=O)N[C@H](C(=O)N3C[C@H](O)C[C@H]3C(=O)NCc3ccc(-c4scnc4C)cc3)C(C)(C)C)nc3c2CCN(c2cccc4cccc(Cl)c24)C3)C[C@@H]1CC#N [LC2] | some degradation in KRAS(G12D) cells at high doses; also recorded: low levels of KRAS(G12D) degradation only at higher concentrations | sparing KRAS(WT) | 250 to 760 nM | 75%–90% | 69% | 1900 nM |  |  | 
2 | C#Cc1c(F)ccc2cc(O)cc(-c3ncc4c(N5CC6CCC(C5)N6)nc(OC[C@@]56CCCN5C[C@H](F)C6)nc4c3F)c12 [MRTX1133] |  |  |  |  |  |  | high selectivity; also recorded: high affinity | some interaction; also recorded: some binding to KRAS(G12C) and KRAS(WT) proteins at high concentration | some interaction; also recorded: some binding to KRAS(G12C) and KRAS(WT) proteins at high concentration
